# Source: paper PMC12454493, “Insight on novel sulfamoylphenyl pyrazole derivatives as anticancer carbonic anhydrase inhibitors” (Molecular Diversity, 2024)
# “And” between values parts separate entries of the source, which are not always exact repeats. Identical values can stand only once.
# Assays:
# [1] = target: hCA XII (Homo sapiens, UniProt O43570); assay: CA inhibitory activity, spectrophotometric p-NPA assay; assay type: biochemical; details: p-NPA substrate, pH 7.5, 25 °C, triplicate; read-out: IC50 (µM) ± SD hCA XII
# [2] = test system: DU-145; assay: NCI-60 one-dose SRB screen (Prostate Cancer); assay type: cell-based; details: Homo sapiens, single dose 10 µM, 48 h, read-out: Growth inhibition percent (GI %)
# [3] = test system: PC-3; assay: NCI-60 one-dose SRB screen (Prostate Cancer); assay type: cell-based; details: Homo sapiens, single dose 10 µM, 48 h, read-out: Growth inhibition percent (GI %)
# [4] = test system: RPMI-8226; assay: NCI-60 one-dose SRB screen (Leukemia); assay type: cell-based; details: Homo sapiens, single dose 10 µM, 48 h, read-out: Growth inhibition percent (GI %)
# [5] = test system: K-562; assay: NCI-60 one-dose SRB screen (Leukemia); assay type: cell-based; details: Homo sapiens, K562, single dose 10 µM, 48 h, read-out: Growth inhibition percent (GI %)
# [6] = test system: CCRF-CEM; assay: NCI-60 one-dose SRB screen (Leukemia); assay type: cell-based; details: Homo sapiens, single dose 10 µM, 48 h, read-out: Growth inhibition percent (GI %)
# [7] = test system: HL-60(TB); assay: NCI-60 one-dose SRB screen (Leukemia); assay type: cell-based; details: Homo sapiens, single dose 10 µM, 48 h, read-out: Growth inhibition percent (GI %)
# [8] = test system: SR; assay: NCI-60 one-dose SRB screen (Leukemia); assay type: cell-based; details: Homo sapiens, single dose 10 µM, 48 h, read-out: Growth inhibition percent (GI %)
# [9] = test system: MOLT-4; assay: NCI-60 one-dose SRB screen (Leukemia); assay type: cell-based; details: Homo sapiens, single dose 10 µM, 48 h, read-out: Growth inhibition percent (GI %)
# [10] = test system: UO-31; assay: NCI-60 one-dose SRB screen (Renal Cancer); assay type: cell-based; details: Homo sapiens, single dose 10 µM, 48 h, read-out: Growth inhibition percent (GI %)
# [11] = test system: RXF 393; assay: NCI-60 one-dose SRB screen (Renal Cancer); assay type: cell-based; details: Homo sapiens, single dose 10 µM, 48 h, read-out: Growth inhibition percent (GI %)
# [12] = test system: ACHN; assay: NCI-60 one-dose SRB screen (Renal Cancer); assay type: cell-based; details: Homo sapiens, single dose 10 µM, 48 h, read-out: Growth inhibition percent (GI %)
# [13] = test system: TK-10; assay: NCI-60 one-dose SRB screen (Renal Cancer); assay type: cell-based; details: Homo sapiens, single dose 10 µM, 48 h, read-out: Growth inhibition percent (GI %)
# [14] = test system: 786-0; assay: NCI-60 one-dose SRB screen (Renal Cancer); assay type: cell-based; details: Homo sapiens, single dose 10 µM, 48 h, read-out: Growth inhibition percent (GI %)
# [15] = test system: A498; assay: NCI-60 one-dose SRB screen (Renal Cancer); assay type: cell-based; details: Homo sapiens, single dose 10 µM, 48 h, read-out: Growth inhibition percent (GI %)
# [16] = test system: SN12C; assay: NCI-60 one-dose SRB screen (Renal Cancer); assay type: cell-based; details: Homo sapiens, single dose 10 µM, 48 h, read-out: Growth inhibition percent (GI %)
# [17] = test system: CAKI-1; assay: NCI-60 one-dose SRB screen (Renal Cancer); assay type: cell-based; details: Homo sapiens, single dose 10 µM, 48 h, read-out: Growth inhibition percent (GI %)
# [18] = test system: SK-MEL-5; assay: NCI-60 one-dose SRB screen (Melanoma); assay type: cell-based; details: Homo sapiens, single dose 10 µM, 48 h, read-out: Growth inhibition percent (GI %)
# [19] = test system: SK-MEL-2; assay: NCI-60 one-dose SRB screen (Melanoma); assay type: cell-based; details: Homo sapiens, single dose 10 µM, 48 h, read-out: Growth inhibition percent (GI %)
# [20] = test system: SK-MEL-28; assay: NCI-60 one-dose SRB screen (Melanoma); assay type: cell-based; details: Homo sapiens, single dose 10 µM, 48 h, read-out: Growth inhibition percent (GI %)
# [21] = test system: UACC-257; assay: NCI-60 one-dose SRB screen (Melanoma); assay type: cell-based; details: Homo sapiens, single dose 10 µM, 48 h, read-out: Growth inhibition percent (GI %)
# [22] = test system: MALME-3M; assay: NCI-60 one-dose SRB screen (Melanoma); assay type: cell-based; details: Homo sapiens, single dose 10 µM, 48 h, read-out: Growth inhibition percent (GI %)
# [23] = test system: UACC-62; assay: NCI-60 one-dose SRB screen (Melanoma); assay type: cell-based; details: Homo sapiens, single dose 10 µM, 48 h, read-out: Growth inhibition percent (GI %)
# [24] = test system: M14; assay: NCI-60 one-dose SRB screen (Melanoma); assay type: cell-based; details: Homo sapiens, single dose 10 µM, 48 h, read-out: Growth inhibition percent (GI %)
# [25] = test system: A549/ATCC; assay: NCI-60 one-dose SRB screen (Non-Small Cell Lung Cancer); assay type: cell-based; details: Homo sapiens, single dose 10 µM, 48 h, read-out: Growth inhibition percent (GI %)
# [26] = test system: NCI-H460; assay: as above; assay type: cell-based; details: Homo sapiens, single dose 10 µM, 48 h, read-out: Growth inhibition percent (GI %)
# [27] = test system: NCI-H226; assay: as above; assay type: cell-based; details: Homo sapiens, single dose 10 µM, 48 h, read-out: Growth inhibition percent (GI %)
# [28] = test system: HOP-62; assay: as above; assay type: cell-based; details: Homo sapiens, single dose 10 µM, 48 h, read-out: Growth inhibition percent (GI %)
# [29] = test system: NCI-H23; assay: as above; assay type: cell-based; details: Homo sapiens, single dose 10 µM, 48 h, read-out: Growth inhibition percent (GI %)
# [30] = test system: HOP-92; assay: as above; assay type: cell-based; details: Homo sapiens, single dose 10 µM, 48 h, read-out: Growth inhibition percent (GI %)
# [31] = test system: NCI-H322M; assay: as above; assay type: cell-based; details: Homo sapiens, single dose 10 µM, 48 h, read-out: Growth inhibition percent (GI %)
# [32] = test system: NCI-H522; assay: as above; assay type: cell-based; details: Homo sapiens, single dose 10 µM, 48 h, read-out: Growth inhibition percent (GI %)
# [33] = test system: EKVX; assay: as above; assay type: cell-based; details: Homo sapiens, single dose 10 µM, 48 h, read-out: Growth inhibition percent (GI %)
# [34] = test system: KM12; assay: NCI-60 one-dose SRB screen (Colon Cancer); assay type: cell-based; details: Homo sapiens, single dose 10 µM, 48 h, read-out: Growth inhibition percent (GI %)
# [35] = test system: HCT-15; assay: NCI-60 one-dose SRB screen (Colon Cancer); assay type: cell-based; details: Homo sapiens, single dose 10 µM, 48 h, read-out: Growth inhibition percent (GI %)
# [36] = test system: SW-620; assay: NCI-60 one-dose SRB screen (Colon Cancer); assay type: cell-based; details: Homo sapiens, single dose 10 µM, 48 h, read-out: Growth inhibition percent (GI %)
# [37] = test system: HCT-116; assay: NCI-60 one-dose SRB screen (Colon Cancer); assay type: cell-based; details: Homo sapiens, single dose 10 µM, 48 h, read-out: Growth inhibition percent (GI %)
# [38] = test system: HT29; assay: NCI-60 one-dose SRB screen (Colon Cancer); assay type: cell-based; details: Homo sapiens, HT-29, single dose 10 µM, 48 h, read-out: Growth inhibition percent (GI %)
# [39] = test system: HCC-2998; assay: NCI-60 one-dose SRB screen (Colon Cancer); assay type: cell-based; details: Homo sapiens, single dose 10 µM, 48 h, read-out: Growth inhibition percent (GI %)
# [40] = test system: COLO 205; assay: NCI-60 one-dose SRB screen (Colon Cancer); assay type: cell-based; details: Homo sapiens, single dose 10 µM, 48 h, read-out: Growth inhibition percent (GI %)
# [41] = test system: SF-268; assay: NCI-60 one-dose SRB screen (CNS Cancer); assay type: cell-based; details: Homo sapiens, single dose 10 µM, 48 h, read-out: Growth inhibition percent (GI %)
# [42] = test system: U251; assay: NCI-60 one-dose SRB screen (CNS Cancer); assay type: cell-based; details: Homo sapiens, U-251, single dose 10 µM, 48 h, read-out: Growth inhibition percent (GI %)
# [43] = test system: SF-295; assay: NCI-60 one-dose SRB screen (CNS Cancer); assay type: cell-based; details: Homo sapiens, single dose 10 µM, 48 h, read-out: Growth inhibition percent (GI %)
# [44] = test system: SF-539; assay: NCI-60 one-dose SRB screen (CNS Cancer); assay type: cell-based; details: Homo sapiens, single dose 10 µM, 48 h, read-out: Growth inhibition percent (GI %)
# [45] = test system: SNB-75; assay: NCI-60 one-dose SRB screen (CNS Cancer); assay type: cell-based; details: Homo sapiens, single dose 10 µM, 48 h, read-out: Growth inhibition percent (GI %)
# [46] = test system: SNB-19; assay: NCI-60 one-dose SRB screen (CNS Cancer); assay type: cell-based; details: Homo sapiens, single dose 10 µM, 48 h, read-out: Growth inhibition percent (GI %)
# [47] = target: hCA IX (Homo sapiens, UniProt Q16790); assay: CA inhibitory activity, spectrophotometric p-NPA assay; assay type: biochemical; details: p-NPA substrate, pH 7.5, 25 °C, triplicate; read-out: IC50 (µM) ± SD hCA IX
# Protocol: The software used to calculate CA IC50 along with statistical analysis of the results is GraphPad Prism 9.00. Results were estimated by using one-way ANOVA and the Bonferroni’s multiple comparisons posthoc test was performed (P < 0.05) [46]
# Carbonic anhydrase inhibitory activity:
# The spectrophotometric assay was conducted in HEPES-Tris buffer, NaCl of pH 7.5 (20mM) at 25◦C. Each inhibitory well-consisted of 50 μL of assay buffer solution, 20 μL of hCA enzyme solution (20 ng/μL in Assay Buffer), and 50 μL of test compound in HPLC grade DMSO (maintain 10% of the final concentration). The mixture solution was
# Substrate p-nitrophenyl acetate (p-NPA) (0.7mM) was prepared in HPLC grade methanol and the reaction was started by adding 20 μL to a well in a 96-well-plate. The amount of product formed was measured for 30 min continuously at 1 min intervals at 400 nm in a 96-well-plate using xMARK microplate spectrophotometer, Bio-Rad (USA). The activity of the controlled compound was taken as 100%. All experiments were carried out in triplicates of each used concentration, and results are represented as a
# Sequence of hCA XII (O43570 25-354): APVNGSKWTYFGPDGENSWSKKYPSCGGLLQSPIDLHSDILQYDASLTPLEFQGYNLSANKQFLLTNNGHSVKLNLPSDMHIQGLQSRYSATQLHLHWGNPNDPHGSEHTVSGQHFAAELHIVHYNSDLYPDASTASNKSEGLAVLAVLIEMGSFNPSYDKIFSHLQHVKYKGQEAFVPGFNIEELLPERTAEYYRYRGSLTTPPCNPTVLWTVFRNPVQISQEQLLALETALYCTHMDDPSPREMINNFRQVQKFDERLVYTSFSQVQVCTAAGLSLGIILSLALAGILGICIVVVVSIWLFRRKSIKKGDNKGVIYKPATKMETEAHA
smiles,measurement,setting,value
"CS(=O)(=O)c1ccc(-c2nn(-c3ccc(S(N)(=O)=O)cc3)cc2C(=O)NNC(N)=S)cc1 [Compound 9e, 2-[3-(4-(Methylsulfonyl)phenyl)-1-(4-sulfamoylphenyl)-1H-pyrazole-4-carbonyl] hydrazine-1-carbothioamide]",IC50,[1],0.929 ± 0.035 µM
same,inhibition at 10 µM,[2],< 5%
same,inhibition at 10 µM,[3],< 5%
same,inhibition at 10 µM,[4],< 5%
same,inhibition at 10 µM,[5],< 5%
same,inhibition at 10 µM,[6],< 5%
same,inhibition at 10 µM,[7],< 5%
same,inhibition at 10 µM,[8],< 5%
same,inhibition at 10 µM,[9],< 5%
same,inhibition at 10 µM,[10],5.48%
same,inhibition at 10 µM,[11],< 5%
same,inhibition at 10 µM,[12],< 5%
same,inhibition at 10 µM,[13],< 5%
same,inhibition at 10 µM,[14],< 5%
same,inhibition at 10 µM,[15],< 5%
same,inhibition at 10 µM,[16],< 5%
same,inhibition at 10 µM,[17],9.93%
same,inhibition at 10 µM,[18],< 5%
same,inhibition at 10 µM,[19],< 5%
same,inhibition at 10 µM,[20],< 5%
same,inhibition at 10 µM,[21],7%
same,inhibition at 10 µM,[22],< 5%
same,inhibition at 10 µM,[23],7.82%
same,inhibition at 10 µM,[24],< 5%
same,inhibition at 10 µM,[25],< 5%
same,inhibition at 10 µM,[26],< 5%
same,inhibition at 10 µM,[27],6.39%
same,inhibition at 10 µM,[28],< 5%
same,inhibition at 10 µM,[29],< 5%
same,inhibition at 10 µM,[30],< 5%
same,inhibition at 10 µM,[31],< 5%
same,inhibition at 10 µM,[32],12.3%
same,inhibition at 10 µM,[33],< 5%
same,inhibition at 10 µM,[34],< 5%
same,inhibition at 10 µM,[35],< 5%
same,inhibition at 10 µM,[36],< 5%
same,inhibition at 10 µM,[37],< 5%
same,inhibition at 10 µM,[38],< 5%
same,inhibition at 10 µM,[39],< 5%
same,inhibition at 10 µM,[40],< 5%
same,inhibition at 10 µM,[41],< 5%
same,inhibition at 10 µM,[42],< 5%
same,inhibition at 10 µM,[43],< 5%
same,inhibition at 10 µM,[44],< 5%
same,inhibition at 10 µM,[45],15.9%
same,inhibition at 10 µM,[46],< 5%
"Cc1ccc(-c2nn(-c3ccc(S(N)(=O)=O)cc3)cc2-c2nnc(N)s2)cc1 [Compound 10, 4-[4-(5-Amino-1,3,4-thiadiazol-2-yl)-3-(p-tolyl)-1H-pyrazol-1-yl] benzenesulfonamide]",IC50,[1],1.14 µM and 1.15 µM
same,inhibition at 10 µM,[2],< 5%
same,inhibition at 10 µM,[3],8.5%
same,inhibition at 10 µM,[4],10.2%
same,inhibition at 10 µM,[5],11.1%
same,inhibition at 10 µM,[6],10.2%
same,inhibition at 10 µM,[7],9.66%
same,inhibition at 10 µM,[8],< 5%
same,inhibition at 10 µM,[9],< 5%
same,inhibition at 10 µM,[10],7.96%
same,inhibition at 10 µM,[11],9.9%
same,inhibition at 10 µM,[12],< 5%
same,inhibition at 10 µM,[13],15.4%
same,inhibition at 10 µM,[15],15.5%
same,inhibition at 10 µM,[16],< 5%
same,inhibition at 10 µM,[17],12.1%
same,inhibition at 10 µM,[18],18.5%
same,inhibition at 10 µM,[19],< 5%
same,inhibition at 10 µM,[20],< 5%
same,inhibition at 10 µM,[21],5.16%
same,inhibition at 10 µM,[22],< 5%
same,inhibition at 10 µM,[23],< 5%
same,inhibition at 10 µM,[24],< 5%
same,IC50,[47],0.66 µM and 0.663 µM
same,inhibition at 10 µM,[25],< 5%
same,inhibition at 10 µM,[26],< 5%
same,inhibition at 10 µM,[27],5.79%
same,inhibition at 10 µM,[28],< 5%
same,inhibition at 10 µM,[29],10.4%
same,inhibition at 10 µM,[30],30.8%
same,inhibition at 10 µM,[31],< 5%
same,inhibition at 10 µM,[32],15.3%
same,inhibition at 10 µM,[33],10.5%
same,inhibition at 10 µM,[34],< 5%
same,inhibition at 10 µM,[35],< 5%
same,inhibition at 10 µM,[36],< 5%
same,inhibition at 10 µM,[37],< 5%
same,inhibition at 10 µM,[39],< 5%
same,inhibition at 10 µM,[40],< 5%
same,inhibition at 10 µM,[41],< 5%
same,inhibition at 10 µM,[42],9.42%
same,inhibition at 10 µM,[43],< 5%
same,inhibition at 10 µM,[44],15.6%
same,inhibition at 10 µM,[45],19.5%
same,inhibition at 10 µM,[46],7.72%
